In ChEMBL document CHEMBL1151339, “Antitumor agents from bohemic acid complex, III. The isolation of marcellomycin, musettamycin, rudolphomycin, mimimycin, collinemycin, alcindoromycin, and bohemamine” (J Nat Prod, 1980):
In brackets after ≈: the same amount, converted by molar mass.

Key:
[1] = tested on: L1210; assay: Antitumor activity against mouse L1210 cells xenografted in BDF1 mouse at 51.2 mg/kg, ip relative to control; assay type: functional; conditions: route intraperitoneal
[2] = tested on: Streptococcus pyogenes; assay: Antibacterial activity against Streptococcus pyogenes A-9604 by 2-fold tube dilution method; assay type: functional
[3] = tested on: Candida albicans; assay: Antifungal activity against Candida albicans A15049 by 2-fold tube dilution method; assay type: functional
[4] = tested on: Mus musculus; assay: Toxicity in BDF1 mouse xenografted with mouse L1210 cells assessed as survival at 1.6 mg/kg, ip after 5 days; assay type: organism-based; design: dose 1.6 mg/kg, route intraperitoneal; conditions: in vivo, 120 h
[5] = tested on: Serratia marcescens; assay: Antibacterial activity against Serratia marcescens A20019 by 2-fold tube dilution method; assay type: functional
[6] = tested on: L1210; assay: Antitumor activity against mouse L1210 cells xenografted in BDF1 mouse assessed as median survival time at 1.6 mg/kg, ip; assay type: functional; conditions: route intraperitoneal
[7] = tested on: L1210; assay: Antitumor activity against mouse L1210 cells xenografted in BDF1 mouse assessed as median survival time at 6.4 mg/kg, ip; assay type: functional; conditions: route intraperitoneal
[8] = tested on: Streptococcus pneumoniae; assay: Antibacterial activity against Streptococcus pneumoniae A-9585 by 2-fold tube dilution method; assay type: functional
[9] = tested on: L1210; assay: Antitumor activity against mouse L1210 cells xenografted in BDF1 mouse at 12.8 mg/kg, ip relative to control; assay type: functional; conditions: route intraperitoneal
[10] = tested on: Trichophyton mentagrophytes; assay: Antifungal activity against Trichophyton mentagrophytes A-9870 by 2-fold tube dilution method; assay type: functional
[11] = tested on: Candida tropicalis; assay: Antifungal activity against Candida tropicalis A15051 by 2-fold tube dilution method; assay type: functional
[12] = tested on: L1210; assay: Antitumor activity against mouse L1210 cells xenografted in BDF1 mouse assessed as median survival time at 12.8 mg/kg, ip; assay type: functional; conditions: route intraperitoneal
[13] = tested on: Klebsiella pneumoniae; assay: Antibacterial activity against Klebsiella pneumoniae A15130 by 2-fold tube dilution method; assay type: functional
[14] = tested on: Candida albicans; assay: Antifungal activity against Candida albicans A-9540 by 2-fold tube dilution method; assay type: functional
[15] = tested on: L1210; assay: Antitumor activity against mouse L1210 cells xenografted in BDF1 mouse at 6.4 mg/kg, ip relative to control; assay type: functional; conditions: route intraperitoneal
[16] = tested on: Escherichia coli; assay: Antibacterial activity against Escherichia coli A15119 by 2-fold tube dilution method; assay type: functional
[17] = tested on: Candida albicans; assay: Antifungal activity against Candida albicans A15050 by 2-fold tube dilution method; assay type: functional
[18] = tested on: L1210; assay: Antitumor activity against mouse L1210 cells xenografted in BDF1 mouse assessed as change in tumor average weight at 1.6 mg/kg, ip; assay type: functional; conditions: route intraperitoneal
[19] = tested on: L1210; assay: Antitumor activity against mouse L1210 cells xenografted in BDF1 mouse assessed as change in tumor average weight at 6.4 mg/kg, ip; assay type: functional; conditions: route intraperitoneal
[20] = tested on: Enterococcus faecalis; assay: Antibacterial activity against Streptococcus faecalis A20688 by 2-fold tube dilution method; assay type: functional
[21] = tested on: Mus musculus; assay: Toxicity in BDF1 mouse xenografted with mouse L1210 cells assessed as survival at 3.2 mg/kg, ip after 5 days; assay type: organism-based; design: dose 3.2 mg/kg, route intraperitoneal; conditions: in vivo, 120 h
[22] = tested on: Mus musculus; assay: Toxicity in BDF1 mouse xenografted with mouse L1210 cells assessed as survival at 12.8 mg/kg, ip after 5 days; assay type: organism-based; design: dose 12.8 mg/kg, route intraperitoneal; conditions: in vivo, 120 h
[23] = tested on: L1210; assay: Antitumor activity against mouse L1210 cells xenografted in BDF1 mouse assessed as change in tumor average weight at 25.6 mg/kg, ip; assay type: functional; conditions: route intraperitoneal
[24] = tested on: L1210; assay: Antitumor activity against mouse L1210 cells xenografted in BDF1 mouse at 25.6 mg/kg, ip relative to control; assay type: functional; conditions: route intraperitoneal
[25] = tested on: Enterobacter cloacae; assay: Antibacterial activity against Enterobacter cloacae A-9659 by 2-fold tube dilution method; assay type: functional
[26] = tested on: L1210; assay: Antitumor activity against mouse L1210 cells xenografted in BDF1 mouse assessed as change in tumor average weight at 12.8 mg/kg, ip; assay type: functional; conditions: route intraperitoneal
[27] = tested on: L1210; assay: Antitumor activity against mouse L1210 cells xenografted in BDF1 mouse assessed as change in tumor average weight at 3.2 mg/kg, ip; assay type: functional; conditions: route intraperitoneal
[28] = tested on: Staphylococcus aureus; assay: Antibacterial activity against Staphylococcus aureus A-9497 by 2-fold tube dilution method; assay type: functional
[29] = tested on: Staphylococcus; assay: Antibacterial activity against penicillin resistant Staphylococcus A-9606 by 2-fold tube dilution method; assay type: functional
[30] = tested on: Escherichia coli; assay: Antibacterial activity against Escherichia coli A20341-1 by 2-fold tube dilution method; assay type: functional
[31] = tested on: Mus musculus; assay: Toxicity in BDF1 mouse xenografted with mouse L1210 cells assessed as survival at 6.4 mg/kg, ip after 5 days; assay type: organism-based; design: dose 6.4 mg/kg, route intraperitoneal; conditions: in vivo, 120 h
[32] = tested on: Microsporum canis; assay: Antifungal activity against Microsporum canis A-9872 by 2-fold tube dilution method; assay type: functional
[33] = tested on: Pichia kudriavzevii; assay: Antifungal activity against Candida krusei A15052 by 2-fold tube dilution method; assay type: functional
[34] = tested on: L1210; assay: Antitumor activity against mouse L1210 cells xenografted in BDF1 mouse assessed as median survival time at 3.2 mg/kg, ip; assay type: functional; conditions: route intraperitoneal
[35] = tested on: L1210; assay: Antitumor activity against mouse L1210 cells xenografted in BDF1 mouse at 3.2 mg/kg, ip relative to control; assay type: functional; conditions: route intraperitoneal
[36] = tested on: L1210; assay: Antitumor activity against mouse L1210 cells xenografted in BDF1 mouse assessed as median survival time at 51.2 mg/kg, ip; assay type: functional; conditions: route intraperitoneal
[37] = tested on: L1210; assay: Antitumor activity against mouse L1210 cells xenografted in BDF1 mouse assessed as median survival time at 25.6 mg/kg, ip; assay type: functional; conditions: route intraperitoneal
[38] = tested on: L1210; assay: Antitumor activity against mouse L1210 cells xenografted in BDF1 mouse at 1.6 mg/kg, ip relative to control; assay type: functional; conditions: route intraperitoneal
[39] = tested on: L1210; assay: Antitumor activity against mouse L1210 cells xenografted in BDF1 mouse assessed as change in tumor average weight at 51.2 mg/kg, ip; assay type: functional; conditions: route intraperitoneal
[40] = tested on: Proteus mirabilis; assay: Antibacterial activity against Proteus mirabilis A-9900 by 2-fold tube dilution method; assay type: functional
[41] = tested on: Proteus vulgaris; assay: Antibacterial activity against Proteus vulgaris A21559 by 2-fold tube dilution method; assay type: functional
[42] = tested on: Pseudomonas aeruginosa; assay: Antibacterial activity against Pseudomonas aeruginosa A-9843A by 2-fold tube dilution method; assay type: functional
[43] = tested on: Mus musculus; assay: Toxicity in BDF1 mouse xenografted with mouse L1210 cells assessed as survival at 51.2 mg/kg, ip after 5 days; assay type: organism-based; design: dose 51.2 mg/kg, route intraperitoneal; conditions: in vivo, 120 h
[44] = tested on: Mus musculus; assay: Toxicity in BDF1 mouse xenografted with mouse L1210 cells assessed as survival at 25.6 mg/kg, ip after 5 days; assay type: organism-based; design: dose 25.6 mg/kg, route intraperitoneal; conditions: in vivo, 120 h

Compound: CC[C@@]1(O)C[C@H](O[C@H]2C[C@H](N(C)C)[C@H](O[C@H]3C[C@H](O)[C@H](O)[C@@H](C)O3)[C@@H](C)O2)c2c(cc3c(c2O)C(=O)c2c(O)ccc(O)c2C3=O)[C@H]1C(=O)OC [COLLINEMYCIN]
- T/C [1]: 147%
- MIC [2]: 8 µg/mL (≈ 11.2 µM)
- MIC [3]: > 16 µg/mL
- Activity [4]: Non-toxic
- MIC [5]: > 125 µg/mL
- Activity [6]: 8 days
- Activity [7]: 8 days
- MIC [8]: 2 µg/mL (≈ 2.79 µM)
- T/C [9]: 133%
- MIC [10]: > 16 µg/mL
- MIC [11]: > 16 µg/mL
- Activity [12]: 10 days
- MIC [13]: > 125 µg/mL
- MIC [14]: > 16 µg/mL
- T/C [15]: 107%
- MIC [16]: > 125 µg/mL
- MIC [17]: > 16 µg/mL
- Activity [18]: -0.3 g
- Activity [19]: -1.2 g
- MIC [20]: 63 µg/mL (≈ 88 µM)
- Activity [21]: Non-toxic
- Activity [22]: Non-toxic
- Activity [23]: -4.2 g
- T/C [24]: 147%
- MIC [25]: > 125 µg/mL
- Activity [26]: -2.3 g
- Activity [27]: 1.3 g
- MIC [28]: 16 µg/mL (≈ 22.4 µM)
- MIC [29]: 63 µg/mL (≈ 88 µM)
- MIC [30]: > 125 µg/mL
- Activity [31]: Non-toxic
- MIC [32]: > 16 µg/mL
- MIC [33]: > 16 µg/mL
- Activity [34]: 8 days
- T/C [35]: 107%
- Activity [36]: 11 days
- Activity [37]: 11 days
- T/C [38]: 107%
- Activity [39]: -2.5 g
- MIC [40]: > 125 µg/mL
- MIC [41]: > 125 µg/mL
- MIC [42]: > 125 µg/mL

Compound: CC[C@@]1(O)C[C@H](O[C@H]2C[C@H](NC)[C@H](O[C@H]3C[C@H](O)[C@H](O[C@@H]4C[C@H](O)[C@H](O)[C@H](C)O4)[C@H](C)O3)[C@@H](C)O2)c2c(cc3c(c2O)C(=O)c2c(O)ccc(O)c2C3=O)[C@H]1C(=O)OC [ALCINDOROMYCIN]
- T/C [1]: 147%
- MIC [2]: 2 µg/mL (≈ 2.4 µM)
- MIC [3]: > 16 µg/mL
- Activity [4]: Non-toxic
- MIC [5]: > 125 µg/mL
- Activity [6]: 7 days
- Activity [7]: 8 days
- MIC [8]: 1 µg/mL (≈ 1.2 µM)
- T/C [9]: 128%
- MIC [10]: > 16 µg/mL
- MIC [11]: > 16 µg/mL
- Activity [12]: 9.5 days
- MIC [13]: > 125 µg/mL
- MIC [14]: > 16 µg/mL
- T/C [15]: 107%
- MIC [16]: > 125 µg/mL
- MIC [17]: > 16 µg/mL
- Activity [18]: 1.3 g
- Activity [19]: 0.6 g
- Activity [43]: Non-toxic
- MIC [20]: 8 µg/mL (≈ 9.62 µM)
- Activity [21]: Non-toxic
- Activity [22]: Non-toxic
- Activity [23]: -1.9 g
- T/C [24]: 133%
- MIC [25]: > 125 µg/mL
- Activity [26]: -0.8 g
- Activity [27]: 0.5 g
- MIC [28]: 8 µg/mL (≈ 9.62 µM)
- MIC [29]: 63 µg/mL (≈ 75.7 µM)
- MIC [30]: > 125 µg/mL
- Activity [31]: Non-toxic
- MIC [32]: > 16 µg/mL
- MIC [33]: > 16 µg/mL
- Activity [44]: Non-toxic
- Activity [34]: 8.5 days
- T/C [35]: 113%
- Activity [36]: 11 days
- Activity [37]: 10 days
- T/C [38]: 93%
- Activity [39]: -2.7 g
- MIC [40]: > 125 µg/mL
- MIC [41]: > 125 µg/mL
- MIC [42]: > 125 µg/mL
